The values that follow come from patent US20100216857A1, “METHOD OF TREATING MOTOR DISORDERS WITH 4-(1-(2,3-DIMETHYLPHENYL)ETHYL)-1H-IMIDAZOLE-2(3H)-THIONE” (priority 2007, published 2010).

The test system of experiment [1] is Amphetamine-induced Hyperlocomotion. The experiment can be described thus: Amphetamine-induced hyperlocomotion in the open field. The experiment is classed as in vivo, mice. The note with it: for % DECREASE ACTIVITY REL TO VEH + AMPH / TOTAL ACTIVITY POST-AMPHETAMINE (AUC): mice, 15 min before amphetamine SC. As to the method: Drug 1 was administered 30 minutes after the animal was placed in the open field. Drug 2 was administered subcutaneously (SC) at 45 minutes after the animal was placed in the open field (15 minutes after drug 1). AUC indicates the total amount of locomotor activity after administration of drug 2. “% decrease activity” indicates the percentage decrease in total activity relative to the Vehicle+Amphetamine group. ⋄ significant difference (P<0.05) relative to Vehicle+ Amphetamine treated animals. * indicates significant difference (P ≦0.05) relative to Vehicle+Vehicle treated animals. Amphetamine- or cocaine-induced hyperactivity. Mice were placed in an open field apparatus (FlexField, San Diego Instruments, San Diego, Calif.). […] Total activity over each 5 minute bin (21 total bins) was added to establish activity curve over the 105 minute testing. For i.p. administration, the compounds are formulated in H2O with 0.5% DMSO and given in a volume of 1 ml/kg body weight by injecting into the intraperitoneal cavity. For p.o. administration, the compounds are formulated in H2O with 0.5% DMSO and given in a volume of 2 ml/kg body weight using a 25-gauge, 1.5 inch gavage needle that is slowly inserted through the esophagus into the stomach.

Experiment [2] deals with Nigrostriatal-lesion-induced Rotational Behavior. Description: Nigrostriatal-lesion-induced rotational behavior following amphetamine administration. It is filed as in vivo, rats. The note with it: for % DECREASE ROTATIONS (relative to Vehicle+Amphetamine): nigrostriatal-lesioned rats, 15 min before amphetamine SC. On the procedure:
Table 3, below, indicates the changes in rotational behavior in nigrostriatal-lesioned rats treated with the compound of the invention and the psychostimulant amphetamine. Drug 1 was administered 15 minutes before amphetamine, and 10 minutes post-amphetamine, the animals were placed into the rotometer for 30 or 60 minutes. “% decrease rotations” indicates the percentage decrease in total rotations relative to the Vehicle+Amphetamine group. ⋄ indicates significant difference (P≦0.05) relative to Vehicle+Amphetamine treated animals. * indicates significant difference (P+0.05) relative to Vehicle+Vehicle treated animals.
Amphetamine-induced rotational behavior. Pre-Apomorphine-screened (rotated) rats (with lesions ≧95% DA cell loss) were purchased from Charles Rivers Laboratories. Animals were given ˜4 days to acclimate prior to testing. All animals weighted 250-300 g at the beginning of the study. Animals were treated with various combinations of vehicle or the compound of the invention and amphetamine.
Vehicle or the compound of the invention was administered (p.o.) 15 minutes before amphetamine (2 mg/kg s.c.). Rotational behavior was assessed 15 minutes post-amphetamine administration and was monitored for 60 minutes using a Rotometer system from San Diego Instruments (San Diego, Calif.).
For i.p. administration, the compounds are formulated in H2O with 0.5% DMSO and given in a volume of 1 ml/kg body weight by injecting into the intraperitoneal cavity. For p.o. administration, the compounds are formulated in H2O with 0.5% DMSO and given in a volume of 2 ml/kg body weight using a 25-gauge, 1.5 inch gavage needle that is slowly inserted through the esophagus into the stomach.

Experiment [3] relates to Cocaine-induced Hyperlocomotion. Description: Cocaine-induced hyperlocomotion in the open field. The experiment is classed as in vivo, mice. The following applies: for % DECREASE ACTIVITY (relative to Vehicle+Cocaine) / TOTAL ACTIVITY POST-COCAINE (AUC): mice, 15 min before cocaine SC. On the procedure:
Drug 1 was administered 30 minutes after the animal was placed in the open field. Drug 2 was administered subcutaneously (SC) at 45 minutes after the animal was placed in the open field (15 minutes after drug 1). AUC indicates the total amount of locomotor activity after administration of drug 2. “% decrease activity” indicates the percentage decrease in total activity relative to the Vehicle+Cocaine group. ⋄ indicates significant difference (P≦0.05) relative to Vehicle+Cocaine treated animals. * indicates significant difference (P≦0.05) relative to Vehicle+Vehicle treated animals. Amphetamine- or cocaine-induced hyperactivity. Mice were placed in an open field apparatus (FlexField, San Diego Instruments, San Diego, Calif.). […] Total activity over each 5 minute bin (21 total bins) was added to establish activity curve over the 105 minute testing. For i.p. administration, the compounds are formulated in H2O with 0.5% DMSO and given in a volume of 1 ml/kg body weight by injecting into the intraperitoneal cavity. For p.o. administration, the compounds are formulated in H2O with 0.5% DMSO and given in a volume of 2 ml/kg body weight using a 25-gauge, 1.5 inch gavage needle that is slowly inserted through the esophagus into the stomach.

Setting [4] is: drug 1 at 0.1 mg/kg PO, 0.1 mg/kg.

Where “and” joins values, the source holds several entries; their conditions need not be identical. Equal entries are not always repeated. Marks after values point to notes of the source that are not given here.

For `O=C(CCCN1CCC(O)(c2ccc(Cl)cc2)CC1)c1ccc(F)cc1` [Haloperidol, reference compound], in experiment [1] (drug 1 at 0.2 mg/kg IP), the “% DECREASE ACTIVITY REL TO VEH + AMPH” value worked out at 91%^⋄* and the “TOTAL ACTIVITY POST-AMPHETAMINE (AUC)” value is reported as 1123.16 ± 280.11.
For `Cc1cccc(C(C)c2c[nH]c(=S)[nH]2)c1C` (centres unmarked) [Compound of the invention, 4-(1-(2,3-dimethylphenyl)ethyl)-1H-imidazole-2(3H)-thione], the “inhibition of amphetamine-induced rotational behavior (in words)” value in experiment [2] (nigrostriatal-lesioned animals) is “inhibit amphetamine-induced rotational behavior”. Also, the entries for the “% DECREASE ROTATIONS (relative to Vehicle+Amphetamine)” value in experiment [2] (drug 1 at 0.03 mg/kg PO), in experiment [2] (drug 1 at 0.1 mg/kg PO) and in experiment [2] (drug 1 at 1 mg/kg PO) were 68%^⋄, 68%^⋄ and 46%^⋄*, respectively. Besides, the “inhibition of increased locomotion associated with psychostimulant administration (in words)” value in experiment [1] (amphetamine-induced hyperactivity) and in experiment [3] (cocaine-induced hyperactivity) was “effectively inhibit increased locomotion” each time. Further, the “% DECREASE ACTIVITY REL TO VEH + AMPH” value in experiment [1] (drug 1 at 0.01 mg/kg PO) was 32%*; in experiment [1] (drug 1 at 0.03 mg/kg PO) it was 72%^⋄; in experiment [1] (setting [4]), 63%^⋄ and 72%^⋄. Besides, the “TOTAL ACTIVITY POST-AMPHETAMINE (AUC)” value is 9093.3 ± 983.8 in experiment [1] (drug 1 at 0.01 mg/kg PO); 3783.3 ± 214.2 in experiment [1] (drug 1 at 0.03 mg/kg PO); 5036.0 ± 654.2 and 3759.1 ± 685.4 in experiment [1] (setting [4]). Moreover, the “% DECREASE ACTIVITY (relative to Vehicle+Cocaine)” value in experiment [3] (drug 1 at 0.01 mg/kg PO) is 53%^⋄; in experiment [3] (drug 1 at 0.03 mg/kg PO), 31%*; in experiment [3] (drug 1 at 0.1 mg/kg PO), 64%^⋄. Besides, the “TOTAL ACTIVITY POST-COCAINE (AUC)” value in experiment [3] (drug 1 at 0.01 mg/kg PO) is reported as 4904 ± 1832.1; in experiment [3] (drug 1 at 0.03 mg/kg PO) it was 7260.8 ± 1756.5; in experiment [3] (drug 1 at 0.1 mg/kg PO), 3754.3 ± 1281.9.
